Assays:
Assay in all cases: KINOMEscan competition binding
Conditions in all cases: compound 1.0 µM
[1] = tested on: EIF2AK4 KD2 (human), Q9P2K8 [S808G]
[2] = target: LATS2 (human) (UniProt Q9NRM7)
[3] = target: EPHB6 (human) (UniProt O15197)
[4] = target: JAK1 JH1 catalytic (human) (UniProt P23458)
[5] = target: ULK3 (human) (UniProt Q6PHR2)
[6] = target: CDK16 (human) (UniProt Q00536)
[7] = target: CDK9 (human) (UniProt P50750)
[8] = target: ABL2 (human) (UniProt P42684)
[9] = target: MAP3K11 (human) (UniProt Q16584)
Chain of MAP3K11 (human) (Q16584 whole entry, looked up): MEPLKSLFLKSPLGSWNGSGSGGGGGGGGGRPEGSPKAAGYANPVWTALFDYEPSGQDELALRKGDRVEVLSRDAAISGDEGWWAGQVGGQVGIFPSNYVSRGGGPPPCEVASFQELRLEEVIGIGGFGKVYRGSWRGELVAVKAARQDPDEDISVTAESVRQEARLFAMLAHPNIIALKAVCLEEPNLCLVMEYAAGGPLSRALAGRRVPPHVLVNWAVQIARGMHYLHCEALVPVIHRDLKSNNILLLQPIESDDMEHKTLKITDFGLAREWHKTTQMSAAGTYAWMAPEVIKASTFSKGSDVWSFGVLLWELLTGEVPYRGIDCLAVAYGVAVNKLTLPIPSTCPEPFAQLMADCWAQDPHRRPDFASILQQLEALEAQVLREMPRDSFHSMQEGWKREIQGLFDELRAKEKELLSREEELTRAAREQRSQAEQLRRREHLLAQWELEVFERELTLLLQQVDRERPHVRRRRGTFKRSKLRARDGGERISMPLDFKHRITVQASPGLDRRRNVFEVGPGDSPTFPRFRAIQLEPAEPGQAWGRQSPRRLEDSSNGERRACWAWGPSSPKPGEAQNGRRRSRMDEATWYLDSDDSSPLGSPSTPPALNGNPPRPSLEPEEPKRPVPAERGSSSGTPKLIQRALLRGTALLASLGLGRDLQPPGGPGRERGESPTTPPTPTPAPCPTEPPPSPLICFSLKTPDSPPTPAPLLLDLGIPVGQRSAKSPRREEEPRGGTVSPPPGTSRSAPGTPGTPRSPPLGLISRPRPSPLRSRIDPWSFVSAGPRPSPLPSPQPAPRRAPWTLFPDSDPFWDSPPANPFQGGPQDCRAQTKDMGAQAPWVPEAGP

[10] = target: PTK2B (human) (UniProt Q14289)
[11] = target: FLT1 (human) (UniProt P17948)
[12] = target: CDK17 (human) (UniProt Q00537)
[13] = target: MAP2K6 (human) (UniProt P52564)
[14] = target: MST1R (human) (UniProt Q04912)
[15] = target: MERTK (human) (UniProt Q12866)
[16] = target: STK4 (human) (UniProt Q13043)
[17] = tested on: EGFR (human), P00533 [746-750 del]
Chain of EGFR (human), P00533 [746-750 del] (P00533 whole entry, looked up, stated change not applied): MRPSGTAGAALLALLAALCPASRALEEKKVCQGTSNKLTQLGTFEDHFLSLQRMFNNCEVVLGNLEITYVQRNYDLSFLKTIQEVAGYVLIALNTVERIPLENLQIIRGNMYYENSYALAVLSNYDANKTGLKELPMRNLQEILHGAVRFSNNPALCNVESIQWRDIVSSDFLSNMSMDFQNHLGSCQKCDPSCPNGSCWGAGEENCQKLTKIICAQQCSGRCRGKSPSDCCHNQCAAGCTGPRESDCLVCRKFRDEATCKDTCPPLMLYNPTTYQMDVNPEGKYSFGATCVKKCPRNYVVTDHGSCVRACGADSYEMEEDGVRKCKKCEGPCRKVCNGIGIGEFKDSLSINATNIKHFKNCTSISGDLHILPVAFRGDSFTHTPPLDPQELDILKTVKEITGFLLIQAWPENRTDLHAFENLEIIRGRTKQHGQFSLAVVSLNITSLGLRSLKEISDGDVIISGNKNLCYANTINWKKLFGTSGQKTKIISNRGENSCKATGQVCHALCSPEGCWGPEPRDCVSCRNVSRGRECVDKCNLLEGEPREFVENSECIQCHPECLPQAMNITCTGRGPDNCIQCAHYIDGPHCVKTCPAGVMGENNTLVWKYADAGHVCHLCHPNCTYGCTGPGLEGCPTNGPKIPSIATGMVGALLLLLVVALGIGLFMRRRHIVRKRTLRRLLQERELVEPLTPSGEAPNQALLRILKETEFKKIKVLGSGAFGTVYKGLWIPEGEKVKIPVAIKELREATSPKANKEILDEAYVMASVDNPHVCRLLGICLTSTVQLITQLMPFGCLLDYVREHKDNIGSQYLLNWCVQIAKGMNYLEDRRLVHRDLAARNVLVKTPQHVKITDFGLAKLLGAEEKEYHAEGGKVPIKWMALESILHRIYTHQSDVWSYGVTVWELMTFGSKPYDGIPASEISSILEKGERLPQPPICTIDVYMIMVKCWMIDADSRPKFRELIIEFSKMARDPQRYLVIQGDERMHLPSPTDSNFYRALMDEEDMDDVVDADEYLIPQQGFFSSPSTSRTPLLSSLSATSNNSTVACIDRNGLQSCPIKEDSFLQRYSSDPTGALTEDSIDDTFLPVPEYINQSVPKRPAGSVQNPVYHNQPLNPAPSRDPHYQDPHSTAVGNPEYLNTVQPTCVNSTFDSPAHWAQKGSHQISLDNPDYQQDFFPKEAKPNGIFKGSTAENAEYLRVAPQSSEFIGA

[18] = target: PIP5K1C (human) (UniProt O60331)
Chain of PIP5K1C (human) (O60331 whole entry, looked up): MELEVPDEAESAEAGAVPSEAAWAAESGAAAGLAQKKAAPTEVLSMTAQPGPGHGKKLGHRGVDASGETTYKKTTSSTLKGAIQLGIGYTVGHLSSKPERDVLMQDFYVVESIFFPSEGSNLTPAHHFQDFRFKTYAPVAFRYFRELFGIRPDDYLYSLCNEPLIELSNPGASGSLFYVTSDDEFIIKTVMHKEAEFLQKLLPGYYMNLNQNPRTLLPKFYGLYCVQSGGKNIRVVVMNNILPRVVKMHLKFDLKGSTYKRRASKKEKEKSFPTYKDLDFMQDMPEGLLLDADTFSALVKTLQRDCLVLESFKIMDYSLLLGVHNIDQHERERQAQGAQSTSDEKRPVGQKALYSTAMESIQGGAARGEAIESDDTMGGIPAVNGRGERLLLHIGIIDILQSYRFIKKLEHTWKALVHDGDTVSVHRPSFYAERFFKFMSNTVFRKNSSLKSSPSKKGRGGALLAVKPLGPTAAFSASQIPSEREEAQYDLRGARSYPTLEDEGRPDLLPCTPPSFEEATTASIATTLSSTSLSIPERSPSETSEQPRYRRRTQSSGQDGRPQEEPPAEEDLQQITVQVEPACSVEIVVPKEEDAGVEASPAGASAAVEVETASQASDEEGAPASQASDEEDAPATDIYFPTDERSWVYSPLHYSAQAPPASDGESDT

[19] = target: AURKA (human) (UniProt O14965)
[20] = target: MAP4K5 (human) (UniProt Q9Y4K4)
[21] = target: ACVR1 (human) (UniProt Q04771)
Chain of ACVR1 (human) (Q04771 whole entry, looked up): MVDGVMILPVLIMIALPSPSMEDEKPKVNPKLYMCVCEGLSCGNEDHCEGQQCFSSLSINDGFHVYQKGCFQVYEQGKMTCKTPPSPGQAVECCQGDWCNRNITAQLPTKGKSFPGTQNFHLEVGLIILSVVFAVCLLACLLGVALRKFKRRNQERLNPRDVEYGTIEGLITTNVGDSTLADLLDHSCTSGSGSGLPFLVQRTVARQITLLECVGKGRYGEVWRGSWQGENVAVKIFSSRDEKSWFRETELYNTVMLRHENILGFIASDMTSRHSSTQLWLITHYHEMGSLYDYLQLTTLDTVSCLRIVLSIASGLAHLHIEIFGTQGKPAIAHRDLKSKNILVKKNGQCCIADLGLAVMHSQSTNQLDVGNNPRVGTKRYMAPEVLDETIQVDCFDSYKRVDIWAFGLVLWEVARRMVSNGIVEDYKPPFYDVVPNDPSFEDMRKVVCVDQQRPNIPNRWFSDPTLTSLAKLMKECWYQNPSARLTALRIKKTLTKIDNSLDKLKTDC

[22] = target: SIK2 (human) (UniProt Q9H0K1)
[23] = target: MYO3B (human) (UniProt Q8WXR4)
[24] = target: MYLK4 (human) (UniProt Q86YV6)
[25] = target: NEK7 (human) (UniProt Q8TDX7)
[26] = target: NEK9 (human) (UniProt Q8TD19)
[27] = target: RPS6KA1 KD1 (human) (UniProt Q15418)
[28] = target: CLK1 (human) (UniProt P49759)
Chain of CLK1 (human) (P49759 whole entry, looked up): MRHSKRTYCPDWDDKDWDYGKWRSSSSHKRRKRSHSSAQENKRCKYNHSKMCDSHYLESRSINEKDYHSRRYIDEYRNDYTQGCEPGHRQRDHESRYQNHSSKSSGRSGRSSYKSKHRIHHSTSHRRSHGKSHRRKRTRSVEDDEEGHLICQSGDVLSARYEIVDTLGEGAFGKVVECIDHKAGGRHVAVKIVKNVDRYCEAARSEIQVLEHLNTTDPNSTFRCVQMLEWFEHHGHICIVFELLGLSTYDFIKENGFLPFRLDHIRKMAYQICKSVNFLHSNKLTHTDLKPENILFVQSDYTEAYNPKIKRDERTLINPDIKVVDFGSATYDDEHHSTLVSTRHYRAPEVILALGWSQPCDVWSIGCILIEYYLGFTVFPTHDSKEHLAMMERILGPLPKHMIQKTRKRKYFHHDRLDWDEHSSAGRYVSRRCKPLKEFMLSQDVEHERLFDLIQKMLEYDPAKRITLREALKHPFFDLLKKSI

[29] = target: CDC42BPG (human) (UniProt Q6DT37)
[30] = target: MAPK13 (human) (UniProt O15264)
[31] = target: CLK3 (human) (UniProt P49761)
[32] = target: TGFBR1 (human) (UniProt P36897)
[33] = target: NEK6 (human) (UniProt Q9HC98)
[34] = tested on: PIK3CA (human), P42336 [H1047Y]
[35] = target: IKBKE (human) (UniProt Q14164)
[36] = target: PDGFRB (human) (UniProt P09619)
[37] = target: IRAK3 (human) (UniProt Q9Y616)
[38] = target: PAK4 (human) (UniProt O96013)
[39] = target: STK38L (human) (UniProt Q9Y2H1)
[40] = target: PLK2 (human) (UniProt Q9NYY3)
[41] = target: PDPK1 (human) (UniProt O15530)
[42] = target: CSNK1E (human) (UniProt P49674)

Chain of ABL2 (human) (P42684 whole entry, looked up): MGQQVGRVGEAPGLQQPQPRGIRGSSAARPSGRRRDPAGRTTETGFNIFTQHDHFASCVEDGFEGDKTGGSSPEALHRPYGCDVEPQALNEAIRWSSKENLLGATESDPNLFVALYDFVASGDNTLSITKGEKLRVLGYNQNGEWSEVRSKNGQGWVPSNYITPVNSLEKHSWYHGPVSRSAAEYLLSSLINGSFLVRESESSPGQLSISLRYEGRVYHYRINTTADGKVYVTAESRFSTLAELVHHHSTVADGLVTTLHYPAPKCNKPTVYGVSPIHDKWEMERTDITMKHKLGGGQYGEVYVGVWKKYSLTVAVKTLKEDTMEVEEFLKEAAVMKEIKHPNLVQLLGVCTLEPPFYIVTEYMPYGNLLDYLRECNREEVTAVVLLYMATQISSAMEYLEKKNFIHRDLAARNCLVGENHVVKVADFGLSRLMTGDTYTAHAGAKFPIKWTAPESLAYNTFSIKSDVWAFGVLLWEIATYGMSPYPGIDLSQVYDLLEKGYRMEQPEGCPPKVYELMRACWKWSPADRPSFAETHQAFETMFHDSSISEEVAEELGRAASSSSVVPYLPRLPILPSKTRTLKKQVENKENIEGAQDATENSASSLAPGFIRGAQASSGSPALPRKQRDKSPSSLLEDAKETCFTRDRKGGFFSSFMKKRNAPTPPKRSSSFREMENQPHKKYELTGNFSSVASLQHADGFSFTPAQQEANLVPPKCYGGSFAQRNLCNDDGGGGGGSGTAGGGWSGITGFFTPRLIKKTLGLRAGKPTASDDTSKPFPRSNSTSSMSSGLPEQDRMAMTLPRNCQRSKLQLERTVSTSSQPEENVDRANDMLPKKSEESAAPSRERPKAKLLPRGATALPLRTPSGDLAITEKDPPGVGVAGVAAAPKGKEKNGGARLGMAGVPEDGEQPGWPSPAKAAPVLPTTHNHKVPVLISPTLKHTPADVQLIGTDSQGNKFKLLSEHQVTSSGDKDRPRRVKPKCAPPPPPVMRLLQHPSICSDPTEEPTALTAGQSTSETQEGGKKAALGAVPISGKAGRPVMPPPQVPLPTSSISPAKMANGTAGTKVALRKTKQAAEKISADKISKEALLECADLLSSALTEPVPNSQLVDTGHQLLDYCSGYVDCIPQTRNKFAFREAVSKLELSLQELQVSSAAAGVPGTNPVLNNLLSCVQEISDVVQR

## CN(C)C/C=C/C(=O)Nc1cccc(C(=O)Nc2ccc(Nc3nccc(-c4cccnc4)n3)cc2)c1
[1]
  kinase still bound, per cent of control: 80%
[2]
  kinase still bound, per cent of control: 73%
[3]
  kinase still bound, per cent of control: 18%
[4]
  kinase still bound, per cent of control: 100%
[5]
  kinase still bound, per cent of control: 7%
[6]
  kinase still bound, per cent of control: 89%
[7]
  kinase still bound, per cent of control: 55%
[8]
  kinase still bound, per cent of control: 79%
[9]
  kinase still bound, per cent of control: 67%
[10]
  kinase still bound, per cent of control: 100%
[11]
  kinase still bound, per cent of control: 75%
[12]
  kinase still bound, per cent of control: 84%
[13]
  kinase still bound, per cent of control: 53%
[14]
  kinase still bound, per cent of control: 100%
[15]
  kinase still bound, per cent of control: 100%
[16]
  kinase still bound, per cent of control: 45%
[17]
  kinase still bound, per cent of control: 88%
[18]
  kinase still bound, per cent of control: 22%
[19]
  kinase still bound, per cent of control: 67%
[20]
  kinase still bound, per cent of control: 52%
[21]
  kinase still bound, per cent of control: 70%
[22]
  kinase still bound, per cent of control: 51%
[23]
  kinase still bound, per cent of control: 100%
[24]
  kinase still bound, per cent of control: 34%
[25]
  kinase still bound, per cent of control: 7%
[26]
  kinase still bound, per cent of control: 48%
[27]
  kinase still bound, per cent of control: 100%
[28]
  kinase still bound, per cent of control: 12%
[29]
  kinase still bound, per cent of control: 73%
[30]
  kinase still bound, per cent of control: 100%
[31]
  kinase still bound, per cent of control: 84%
[32]
  kinase still bound, per cent of control: 86%
[33]
  kinase still bound, per cent of control: 17%
[34]
  kinase still bound, per cent of control: 100%
[35]
  kinase still bound, per cent of control: 98%
[36]
  kinase still bound, per cent of control: 6%
[37]
  kinase still bound, per cent of control: 20%
[38]
  kinase still bound, per cent of control: 79%
[39]
  kinase still bound, per cent of control: 99%
[40]
  kinase still bound, per cent of control: 74%
[41]
  kinase still bound, per cent of control: 93%
[42]
  kinase still bound, per cent of control: 6.8%

— the kinase profiling compilation of Christmann-Franck et al. (2016)
